# PubChem BioAssay (NCI)
# Values joined by “and” are separate entries in the source; they are usually repeats but may differ in a detail not shown here. Equal entries are not always repeated.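 Dose response: 5 concentrations. Exposure: 48 h. Format: 96-well plates. Endpoint: linear interpolation; highest concentration if not reached. GI50 marks 50% less growth. At the TGI there is no net growth.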
# Columns and labels:
# Assay in all cases: NCI-60 cell line screen, 48 h
# DMS 114 small cell lung = system: DMS 114 small cell lung
# LOX IMVI melanoma = system: LOX IMVI melanoma
# NCI-H460 lung = system: NCI-H460 lung
# OVCAR-3 ovarian = system: OVCAR-3 ovarian
# SNB-78 CNS = system: SNB-78 CNS
# TK-10 renal = system: TK-10 renal
# UACC-62 melanoma = system: UACC-62 melanoma
# DU-145 prostate = system: DU-145 prostate
# MCF7 breast = system: MCF7 breast
# PC-3 prostate = system: PC-3 prostate
SMILES,TGI (DMS 114 small cell lung),TGI (LOX IMVI melanoma),TGI (NCI-H460 lung),TGI (OVCAR-3 ovarian),TGI (SNB-78 CNS),TGI (TK-10 renal),TGI (UACC-62 melanoma),TGI (DU-145 prostate),TGI (MCF7 breast),TGI (PC-3 prostate),GI50 (LOX IMVI melanoma),GI50 (NCI-H460 lung),GI50 (OVCAR-3 ovarian),GI50 (SNB-78 CNS),GI50 (TK-10 renal),GI50 (UACC-62 melanoma),GI50 (PC-3 prostate),GI50 (DU-145 prostate),GI50 (MCF7 breast)
COc1ccc2ccc3c(c2c1)CN1CCc2cc(OC)c(OC)cc2C1C3 (stereo not given),> 100 µM,> 100 µM,> 100 µM,> 100 µM,> 100 µM,> 100 µM,> 100 µM,,,,,,,,,,,,
CC1OC(n2cc(F)c(=O)[nH]c2=O)CCC1O (stereo not given),,> 100 µM,> 100 µM,> 100 µM,> 100 µM,> 100 µM,> 100 µM,> 100 µM,> 72.3 µM,> 100 µM,,,,,,,,,
CCCCCCCCCCCCCC(=O)OC1CC(=O)OC1CO (stereo not given),> 100 µM,73.5 µM,> 100 µM,> 100 µM,> 100 µM,> 100 µM,51.1 µM,,,,,,,,,,,,
Cc1cc2c(cc1C)[n+](=O)c(C(=O)CC(=O)C(=O)Nc1c(C(C)C)cccc1C(C)C)c(C)n2[O-],> 100 µM,> 100 µM,> 100 µM,> 100 µM,> 100 µM,> 100 µM,> 100 µM,,,,,,,,,,,,
Cc1ccc(S(=O)(=O)C(CC(=O)N2CCCC2)C(=O)c2ccccc2)cc1 (stereo not given),> 100 µM,> 100 µM,> 100 µM,> 100 µM,> 100 µM,> 100 µM,> 100 µM,,,,,,,,,,,,
Clc1ccc(C2N3CCCCC3[C@@H]3c4[nH]c5ccccc5c4CCN23)cc1 (stereo not given in full),> 100 µM,,> 100 µM,> 100 µM,> 100 µM,> 100 µM,> 100 µM,,,,,,,,,,,,
CC(=O)Nc1ccccc1Sc1ccccc1,> 100 µM,> 100 µM,> 100 µM,> 100 µM,> 100 µM,> 100 µM,> 100 µM,,,,,,,,,,,,
N#CC1(Cc2ccc(N)cc2)c2ccccc2C=CN1C(=O)c1ccccc1 (stereo not given),> 100 µM,> 100 µM,,> 100 µM,> 100 µM,> 100 µM,> 100 µM,,,,,,,,,,,,
CC(C)CC(=O)[O-].CC(C)CC(=O)[O-].N.N.N.N.[Co+3].[O-][Cl+3]([O-])([O-])[O-],,> 100 µM,> 100 µM,> 100 µM,> 100 µM,> 100 µM,> 100 µM,,,,> 100 µM,> 100 µM,> 100 µM,> 100 µM,> 100 µM,> 100 µM,,,
COC(=O)C1=C(C(=O)OC)C2C=CC1C1C(Cl)=C(Cl)C21 (stereo not given),> 100 µM,> 100 µM,> 100 µM,> 100 µM,,> 100 µM,> 100 µM,,,,,,,,,,,,
N#C/C(=C/c1ccsc1)C(=O)c1ccccc1,> 100 µM,> 100 µM,> 100 µM,> 100 µM,> 100 µM,> 100 µM,> 100 µM,,,,,,,,,,,,
CCCCNC1=C(C(=O)OCC)C(=O)CO1,> 100 µM,> 100 µM,> 100 µM,> 100 µM,,> 100 µM,> 100 µM,,,,,,,,,,,,
O=C1C=CC(=Nc2ccc3c(c2)C(Br)c2ccccc2-3)O1 (stereo not given),> 100 µM,> 100 µM,> 100 µM,> 100 µM,> 100 µM,> 100 µM,> 100 µM,,,,,,,,,,,,
CC1=C(C(=O)Nc2ccc([N+](=O)[O-])cc2)C(c2ccc(N(C)C)cc2)C(C(=O)Nc2ccc([N+](=O)[O-])cc2)=C(C)N1,,23.5 µM,45.3 µM,34.5 µM,> 100 µM,92.2 µM,,,,,,,,,,,,,
CCCCN(CCCC)C(=O)C(=O)C(C#N)c1ccc(C)cc1 (stereo not given),> 100 µM,> 100 µM,> 100 µM,> 100 µM,> 100 µM,> 100 µM,> 100 µM,,,,,,,,,,,,
CCOC(=O)/C=C(/C(=O)OCC)n1cc(Cl)c(=O)n(CC(=O)OCC)c1=O,,8.17 µM and 34.5 µM,25 µM and > 100 µM,14.3 µM and 28.8 µM,,8.29 µM and 23.8 µM,8.88 µM and 33.6 µM,8.47 µM and 31.3 µM,46.3 µM,9.64 µM and 34.6 µM,15.2 µM,35.1 µM,10.5 µM,,11.5 µM,18.6 µM,19.5 µM,,
COc1cc(C2c3cc4c(cc3C(NCC(O)CO)C3COC(=O)[C@H]23)OCO4)cc(OC)c1OC (stereo not given in full),0.245 µM,> 100 µM,,,> 100 µM,> 100 µM,> 100 µM,,,,,,,,,,,,
CN(C(=O)C12C3C4C1C1C2C3C41C(=O)C(C)(C)C)C(C)(C)C (stereo not given),> 100 µM,> 100 µM,,> 100 µM,> 100 µM,> 100 µM,> 100 µM,,,,,,,,,,,,
CCNCCNc1cc(-c2ccc(C(=O)OC)cc2)c(C#N)c2nc3ccccc3n12,,2.99 µM,3.31 µM,2.88 µM,,4.44 µM,4.74 µM,> 100 µM,> 100 µM,> 100 µM,1.53 µM,1.42 µM,1.35 µM,,1.91 µM,2.26 µM,5.28 µM,2.65 µM,1.52 µM
COc1ccc2c(c1)c(-c1nc(-c3cn(C)c4ncccc34)cs1)cn2CCCN1CCCCC1,,3.09 µM,3.7 µM,3.02 µM,,3.1 µM,3.2 µM,2.98 µM,3.32 µM,3.27 µM,1.65 µM,1.95 µM,1.59 µM,,1.64 µM,1.76 µM,1.76 µM,1.62 µM,1.7 µM
CC1OC(O[C@H]2C[C@@H](O)[C@]3(CO)[C@H]4[C@H](O)C[C@]5(C)[C@@H](C6=CC(=O)OC6)CC[C@]5(O)[C@@H]4CC[C@]3(O)C2)C(O)C(O)C1O (stereo not given in full),,34 µM,35.4 µM,40.7 µM,,30 µM,32.4 µM,34 µM,42.7 µM,41.4 µM,19 µM,19.1 µM,19.8 µM,,16.2 µM,17.6 µM,20.4 µM,19.3 µM,22.9 µM
O=C1/C(=C/c2ccc(Cl)cc2Cl)N=C(c2ccccc2)N1Cc1ccco1,,> 100 µM,> 100 µM,45.5 µM,,49.3 µM,41.6 µM,51 µM,33.3 µM,93.9 µM,50.5 µM,26.6 µM,22.6 µM,,22.1 µM,18.1 µM,30.8 µM,21.1 µM,13.9 µM
